Here are results for 14 molecules from US20150148311A1, “NON-SYSTEMIC TGR5 AGONISTS” (Ardelyx, Inc., priority 2011, published 2015).

Where two headings read alike, the source gives them in different places.

Series [1] concerns the target T1, human TGR5 (Homo sapiens, UniProt Q8TDU6).
T1 construct: expressed in transfected cells
T1 sequence (Q8TDU6 1-330): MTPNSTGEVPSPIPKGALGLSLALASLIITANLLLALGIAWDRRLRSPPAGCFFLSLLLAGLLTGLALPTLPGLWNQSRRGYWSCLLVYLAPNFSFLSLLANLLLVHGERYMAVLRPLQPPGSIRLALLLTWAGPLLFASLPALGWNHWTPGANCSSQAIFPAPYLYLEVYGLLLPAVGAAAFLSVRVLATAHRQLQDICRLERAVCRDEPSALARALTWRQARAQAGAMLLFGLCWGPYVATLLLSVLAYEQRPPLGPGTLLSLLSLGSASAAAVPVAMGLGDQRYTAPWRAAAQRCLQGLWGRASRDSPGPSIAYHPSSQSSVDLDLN
Put plainly: Cell-based TGR5 assay, HEK293 cells stably expressing human TGR5, cAMP by HTRF. The following applies: 0.05 nM to 10 μM. The essentials:
(§1)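 cAMP HTRF read-out, converted to concentration via standard curve, after a 30 min, 37 °C compound exposure in HBSS with 10 mM HEPES pH 7.4 and 0.5 mM IBMX, compounds serially diluted 3-fold from 10 mM DMSO stock then 100-fold. Cells: stable human TGR5 HEK293, or NCI-H716 expressing TGR5 endogenously.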

Series [2] deals with T2, endogenously expressed TGR5 in NCI H716 (Homo sapiens, UniProt Q8TDU6).
T2 construct: human caecum carcinoma cell line NCI-H716 which endogenously expresses human TGR5; endogenous in cells; host or cells: NCI-H716
T2 sequence (Q8TDU6 1-330): T1 sequence (Q8TDU6 1-330)
Put plainly: Cell-based TGR5 assay, NCI-H716 cells endogenously expressing human TGR5, cAMP by HTRF. The following applies: 30 min at 37 C, 22 nM to 50 μM, read-out: pEC50 endogenously expressed TGR5 in NCI H716 (converted). Put shortly: as §1

In series [3] the target is T3, human IBAT (Homo sapiens, UniProt Q12908).
T3 construct: expressed in transfected cells; host or cells: HEK293
T3 sequence (Q12908 1-348): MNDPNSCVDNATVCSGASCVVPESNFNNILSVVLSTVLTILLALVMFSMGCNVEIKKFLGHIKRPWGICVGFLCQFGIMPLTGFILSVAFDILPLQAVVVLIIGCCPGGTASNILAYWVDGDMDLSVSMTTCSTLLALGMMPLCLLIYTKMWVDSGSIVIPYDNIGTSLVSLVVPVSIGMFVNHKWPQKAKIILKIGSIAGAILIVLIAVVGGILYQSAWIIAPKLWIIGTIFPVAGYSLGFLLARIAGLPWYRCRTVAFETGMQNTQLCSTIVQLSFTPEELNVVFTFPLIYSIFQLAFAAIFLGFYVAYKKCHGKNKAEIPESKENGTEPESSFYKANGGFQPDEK
Put plainly: IBAT counter screen, [3H]taurocholic acid uptake in IBAT-transfected HEK293 cells. Format: cell-based. On the procedure: Following a 40-min incubation, the solution was removed, and the cells were washed twice with uptake buffer. Cells were lysed by addition of 20 μL 0.1% Tween 80 followed by 100 μL scintillation fluid and counted using a TopCount (Perkin Elmer).

The test system of series [4] is C57BL/6 male mice. Put plainly: In vivo gallbladder measurement (weight) 8 h post dose. The following applies: 30 mg/kg; for Gallbladder weight/body weight fold change over vehicle, Significance: 8 h, vs. vehicle, one-way ANOVA, Dunnett's test; for Gallbladder weight/body weight fold change over vehicle, Mean: food removed, eight hours after dosing. The text has this: (§2) Eight hours later, each mouse was heavily anesthetized with isoflurane, the peritoneal cavity was opened and the gallbladder, with its entire contents, was carefully excised and weighed. Blood was collected from the left ventricle of the heart and processed to plasma in EDTA-coated tubes containing aprotinin and DPPIV inhibitor for measurement of total GLP-1 (K150FCC; Meso Scales Discovery, Gaithersburg Md.).

Series [5] has as its system total GLP-1. Put plainly: In vivo GLP-1 secretion, plasma total GLP-1 8 h post dose. The following applies: Mus musculus, C57BL/6 male mice, food removed, plasma total GLP-1 eight hours after dosing, read-out: GLP-1 fold change over vehicle, Mean.
Excerpt: as §2

A short description of series [6]: Compound concentration in gall bladder, LC-MS/MS, 8 h post dose. Format: in vivo. The following applies: 30 mg/kg; for Number of Mice with Gallbladder Concentration < LLOQ: mice below LLOQ / mice in group; for concentration at 8 h: male, C57BL/6, mouse, with contents, mice, gallbladder homogenate, read-out: Mean Example Gallbladder Concentration. On the procedure:
as §2
Compound concentrations in the gall bladder were determined as follows: each mouse was heavily anesthetized with isoflurane, the peritoneal cavity was opened and the gallbladder, with its entire contents, was carefully excised. After harvest, gall bladders were homogenized in 100 μL water using a micro-homogenizer. Samples of homogenate were diluted 1:5 in water and precipitated with three volumes of neat acetonitrile. After centrifugation, supernatants were analyzed by LC-MS/MS. The level of test compound present in gall bladder samples was interpolated from a standard curve for each individual compound prepared in a matrix of gallbladder homogenate from vehicle treated animals.

Series [7] can be described thus: Compound plasma concentration, LC-MS/MS, 8 h post dose. Type of series: in vivo. The following applies: 30 mg/kg; for Number of Mice with Plasma Concentration < LLOQ: mice below LLOQ / mice in group; for concentration at 8 h: male, C57BL/6, mouse, mice, plasma, read-out: Mean Example Plasma Concentration. On the procedure: as §2
Plasma samples were treated with acetonitrile containing an internal standard, precipitated proteins removed by centrifugation. Supernatants were analyzed by LC-MS/MS and compound concentrations were determined by interpolated from a standard curve prepared in plasma.

Where [8] appears, read: HEK293 cells stably expressing human TGR5, 30 min at 37 C, read-out: pEC50 Human TGR5 (converted).
The mark [9] stands for this setting: read-out: pEC50 human IBAT (converted).
[10] abbreviates: pEC50 Human TGR5, HEK293 cells stably expressing human TGR5, 30 min at 37 C.

On to `O=C(C1CCN(Cc2cc(Cl)ccc2Cl)C1)N1CCN(C2CC2)c2ccccc21` (centres unmarked) [Example 57, (4-cyclopropyl-3,4-dihydroquinoxalin-1(2H)-yl)(1-(2,5-dichlorobenzyl)pyrrolidin-3-yl) methanone], for which the EC50 in series [1] (setting [8]) is 1.26 to 50.1 µM; in series [2] it was 1.26 to 50.1 µM; in series [3] (setting [9]), above 25.1 µM.
Regarding `O=C(c1cccn1Cc1cc(Cl)ccc1Cl)N1CCN(C2CC2)c2ccccc21` [Example 61, (4-cyclopropyl-3,4-dihydroquinoxalin-1(2H)-yl)(1-(2,5-dichlorobenzyl)-1H-pyrrol-2-yl)methanone], the EC50 in series [1] (setting [8]) was 0.126 to 1 µM; in series [2] it was 0.126 to 1 µM; in series [3] (setting [9]), above 25.1 µM.
As for `O=C(c1nccn1Cc1cc(Cl)ccc1Cl)N1CCN(C2CC2)c2ccccc21` [Example 62, (4-cyclopropyl-3,4-dihydroquinoxalin-1(2H)-yl)(1-(2,5-dichlorobenzyl)-1H-imidazol-2-yl)methanone], the EC50 in series [1] (setting [8]) is 1.26 to 50.1 µM; in series [2] it was 1.26 to 50.1 µM; in series [3] (setting [9]) it was above 25.1 µM.
On to `O=C(c1cccc(OCc2cc(Cl)ccc2Cl)n1)N1CCN(C2CC2)c2ccccc21` [Example 63, 1-cyclopropyl-4-([6-[(2,5-dichlorophenyl)methoxy]pyridin-2-yl]carbonyl)-1,2,3,4-tetrahydroquinoxaline], for which the EC50 in series [1] (setting [8]) was 1.26 to 50.1 µM; in series [2], 1.26 to 50.1 µM; in series [3] (setting [9]) it was above 25.1 µM.
Consider `O=C(c1cccc(=O)n1Cc1cc(Cl)ccc1Cl)N1CCN(C2CC2)c2ccccc21` [Example 64, 6-[(4-cyclopropyl-1,2,3,4-tetrahydroquinoxalin-1-yl)carbonyl]-1-[(2,5-dichlorophenyl)methyl]-1,2-dihydropyridin-2-one], for which the EC50 in series [1] (setting [8]) was 1.26 to 50.1 µM; in series [2], 1.26 to 50.1 µM; in series [3] (setting [9]), above 25.1 µM.
Consider `Cc1nn(C)c(Oc2cc(Cl)ccc2Cl)c1C(=O)N1CCN(C2CC2)c2ccccc21` [Example 65, 1-cyclopropyl-4-[[5-(2,5-dichlorophenoxy)-1,3-dimethyl-1H-pyrazol-4-yl]carbonyl]-1,2,3,4-tetrahydroquinoxaline], for which the EC50 is 1.26 to 50.1 µM in series [1] (setting [8]), 1.26 to 50.1 µM in series [2] and above 25.1 µM in series [3] (setting [9]).
As for `O=C(c1ncoc1Cc1cc(Cl)ccc1Cl)N1CCN(C2CC2)c2ccccc21` [Example 66, 1-cyclopropyl-4-([5-[(2,5-dichlorophenyl)methyl]-1,3-oxazol-4-yl]carbonyl)-1,2,3,4-tetrahydroquinoxaline], the results for the EC50 in series [1] (setting [8]), in series [2] and in series [3] (setting [9]) were 1.26 to 50.1 µM, 1.26 to 50.1 µM and above 25.1 µM, respectively.
On to `O=C(N1CCN(C2CC2)c2ccccc21)C1(NCc2cc(Cl)c(O)cc2Cl)CC1` [Example 165, (4-Cyclopropyl-3,4-dihydroquinoxalin-1(2H)-yl)(1-((2,5-dichloro-4-hydroxybenzyl)amino)cyclopropyl)methanone], for which, in series [4], the “Gallbladder weight/body weight fold change over vehicle, Significance” value is recorded as “n.s” and the “Gallbladder weight/body weight fold change over vehicle, Mean” value was 1.5 fold change over vehicle. The response vs control in vivo at 30 mg/kg in series [5] was 120%. Moreover, the EC50 in series [1] (setting [8]) is below 0.1 µM. In addition, in series [6], the “Number of Mice with Gallbladder Concentration < LLOQ” value is recorded as 0/8 and the concentration at 8 h was 600 nM. In addition, in series [7], the “Number of Mice with Plasma Concentration < LLOQ” value is reported as 2/8 and the concentration at 8 h came out at 2.2 ng/mL.
On to `Cn1c(C(=O)NC[C@H](O)[C@@H](O)[C@H](O)[C@H](O)CO)cnc1SCc1cc(Cl)c(CN2CSC[C@H]2C(=O)N2CCN(C3CC3)c3ccccc32)cc1Cl` [Example 175, 2-((2,5-dichloro-4-(((R)-4-(4-cyclopropyl-1,2,3,4-tetrahydroquinoxaline-1-carbonyl)thiazolidin-3-yl)methyl)benzyl)thio)-1-methyl-N-((2S,3R,4R,5R)-2,3,4,5,6-pentahydroxyhexyl)-1H-imidazole-5-carboxamide], for which the EC50 in series [3] (setting [9]) is above 25.1 µM. In series [6], the “Number of Mice with Gallbladder Concentration < LLOQ” value is 0/8. The “Number of Mice with Plasma Concentration < LLOQ” value in series [7] was 7/8.
For the molecule `O=C(NCCCCCc1cc(Cl)c(CN2CSC[C@H]2C(=O)N2CCN(C3CC3)c3ccccc32)cc1Cl)NC(CO)(CO)CO` [Example 198], in series [4], the “Gallbladder weight/body weight fold change over vehicle, Significance” value is on record as “* (* p < 0.05 vs. vehicle; One-way ANOVA followed by Dunnett's test)” and the “Gallbladder weight/body weight fold change over vehicle, Mean” value was found to be 1.9 fold change over vehicle. For the same molecule, in series [3] (setting [9]), the EC50 is above 25.1 µM. In addition, in series [6], the “Number of Mice with Gallbladder Concentration < LLOQ” value was 0/8 and the concentration at 8 h is 1300 nM. Moreover, in series [7], the “Number of Mice with Plasma Concentration < LLOQ” value is given as 0/8 and the concentration at 8 h was 3.6 ng/mL.
`O=C(O)CNC(=O)CNC(=O)CNC(=O)CCCCc1cc(Cl)c(CN2CSC[C@H]2C(=O)N2CCN(C3CC3)c3ccccc32)cc1Cl` [Example 228] yielded an EC50 in series [1] (setting [10]) below 0.1 µM. In addition, the EC50 in series [3] (setting [9]) is above 25.1 µM. For the same molecule, in series [6], the “Number of Mice with Gallbladder Concentration < LLOQ” value is listed as 0/8 and the concentration at 8 h came out at 600 nM. For the same molecule, in series [7], the “Number of Mice with Plasma Concentration < LLOQ” value is 8/8 and the concentration at 8 h is below 0.5 ng/mL.
As for `CN(C[C@H](O)[C@@H](O)[C@H](O)[C@H](O)CO)C(=O)CCCCc1cc(Cl)c(CN2CSC[C@H]2C(=O)N2CCN(C3CC3)c3ccccc32)cc1Cl` [Example 238], the EC50 in series [3] (setting [9]) was above 25.1 µM. In series [6], the “Number of Mice with Gallbladder Concentration < LLOQ” value was 0/8 and the concentration at 8 h came out at 4400 nM. Moreover, in series [7], the “Number of Mice with Plasma Concentration < LLOQ” value is reported as 3/8 and the concentration at 8 h was found to be 1.2 ng/mL.
In turn, `O=C(CCCCc1cc(Cl)c(CN2CSC[C@H]2C(=O)N2CCN(C3CC3)c3ccccc32)cc1Cl)N[C@@H](C(=O)O)[C@@H](O)[C@H](O)[C@H](O)CO` [Example 240] registered an EC50 in series [1] (setting [10]) below 0.1 µM. Moreover, the EC50 in series [3] (setting [9]) was above 25.1 µM. Moreover, in series [6], the “Number of Mice with Gallbladder Concentration < LLOQ” value is recorded as 0/8 and the concentration at 8 h was found to be 3920 nM. Besides, in series [7], the “Number of Mice with Plasma Concentration < LLOQ” value is listed as 0/8 and the concentration at 8 h was 28.1 ng/mL.
Regarding `O=C(O)CNC(=O)[C@H](CSSC[C@H](NC(=O)CC[C@H](NC(=O)CCCCc1cc(Cl)c(CN2CSC[C@H]2C(=O)N2CCN(C3CC3)c3ccccc32)cc1Cl)C(=O)O)C(=O)NCC(=O)O)NC(=O)CC[C@H](NC(=O)CCCCc1cc(Cl)c(CN2CSC[C@H]2C(=O)N2CCN(C3CC3)c3ccccc32)cc1Cl)C(=O)O` [Example 241], the EC50 in series [1] (setting [10]) is below 0.1 µM. In series [3], this molecule displayed an EC50 above 25.1 µM. In addition, in series [6], the “Number of Mice with Gallbladder Concentration < LLOQ” value is 8/8 and the concentration at 8 h is below 60 nM. Moreover, in series [7], the “Number of Mice with Plasma Concentration < LLOQ” value is listed as 8/8 and the concentration at 8 h is below 10 ng/mL.
